In patent US8247211B2, “Glycopeptide antibiotics” (American Cyanamid Company, priority 2001, dated 2012):
Converted amounts (≈) assume the structure as drawn.

What was measured:
Experiment in all cases: In vitro antibacterial evaluation: minimum inhibitory concentration (MIC), broth dilution method
Format in all cases: cell-based
Enterococcus sp. = test system: Enterococcus sp.
Summary of the method: (§1)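 MIC read as lowest drug level preventing visible growth. Organisms at 5×10^5 CFU/mL were exposed to a 64-0.06 μg/mL dilution series in Muller-Hinton II […] following NCCLS broth dilution standard M7-A2.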

Escherichia coli = test system: Escherichia coli
Summary of the method: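 Test strains, among them recent clinical isolates carrying methicillin, penicillin and/or vancomycin resistance, were inoculated at 5×10^5 CFU/mL. A broth dilution series spanning 64-0.06 μg/mL in Muller-Hinton II […] (NCCLS M7-A2) defined the MIC as the lowest growth-inhibiting concentration.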

Staphylococcus sp. = settings: broth dilution, 18 hours at 35° C.
Summary of the method: as §1

Streptococcus sp. = test system: Streptococcus sp.
Summary of the method: as §1

[1] = broth dilution, inoculum 5×10^5 CFU/mL, 18 hours at 35° C.

MIC Enterococcus avium (GC 4558) (Enterococcus sp.; [1]): 8 µg/mL (≈ 5.46 µM)
MIC Enterococcus faecalis (ATCC 29212) (Enterococcus sp.; [1]): 16 µg/mL (≈ 10.9 µM)
MIC Enterococcus faecalis (GC 2242) (Enterococcus sp.; [1]): 16 µg/mL (≈ 10.9 µM)
MIC Enterococcus faecalis (GC 2691) (Enterococcus sp.; [1]): 16 µg/mL (≈ 10.9 µM)
MIC Enterococcus faecalis (GC 3059) (Enterococcus sp.; [1]): 16 µg/mL (≈ 10.9 µM)
MIC Enterococcus faecalis (GC 4552) (Enterococcus sp.; [1]): 16 µg/mL (≈ 10.9 µM)
MIC Enterococcus faecalis (GC 4553) (Enterococcus sp.; [1]): 16 µg/mL (≈ 10.9 µM)
MIC Enterococcus faecalis (GC 4554) (Enterococcus sp.; [1]): 16 µg/mL (≈ 10.9 µM)
MIC Enterococcus faecalis (GC 6189) (Enterococcus sp.; [1]): 16 µg/mL (≈ 10.9 µM)
MIC Enterococcus faecium (GC 2243) (Enterococcus sp.; [1]): 8 µg/mL (≈ 5.46 µM)
MIC Enterococcus faecium (GC 4556) (Enterococcus sp.; [1]): 16 µg/mL (≈ 10.9 µM)
MIC Enterococcus faecium (GC 4557) (Enterococcus sp.; [1]): 4 µg/mL (≈ 2.73 µM)
MIC Enterococcus faecalis (ATCC 29212) (Enterococcus sp.; strain ATCC 29212): 16 µg/mL (≈ 10.9 µM)
MIC Enterococcus faecalis (GC 2242) (Enterococcus sp.; strain GC 2242): 16 µg/mL (≈ 10.9 µM)
MIC Enterococcus faecium (GC 2243) (Enterococcus sp.; strain GC 2243): 8 µg/mL (≈ 5.46 µM)
MIC Enterococcus faecalis (GC 2691) (Enterococcus sp.; strain GC 2691): 16 µg/mL (≈ 10.9 µM)
MIC Enterococcus faecalis (GC 3059) (Enterococcus sp.; strain GC 3059): 16 µg/mL (≈ 10.9 µM)
MIC Enterococcus faecalis (GC 4552) (Enterococcus sp.; strain GC 4552): 16 µg/mL (≈ 10.9 µM)
MIC Enterococcus faecalis (GC 4553) (Enterococcus sp.; strain GC 4553): 16 µg/mL (≈ 10.9 µM)
MIC Enterococcus faecalis (GC 4554) (Enterococcus sp.; strain GC 4554): 16 µg/mL (≈ 10.9 µM)
MIC Enterococcus faecium (GC 4556) (Enterococcus sp.; strain GC 4556): 16 µg/mL (≈ 10.9 µM)
MIC Enterococcus faecium (GC 4557) (Enterococcus sp.; strain GC 4557): 4 µg/mL (≈ 2.73 µM)
MIC Enterococcus avium (GC 4558) (Enterococcus sp.; strain GC 4558): 8 µg/mL (≈ 5.46 µM)
MIC Enterococcus faecalis (GC 6189) (Enterococcus sp.; strain GC 6189): 16 µg/mL (≈ 10.9 µM)
MIC Escherichia coli (ATCC 25922) (Escherichia coli; strain ATCC 25922): 32 µg/mL (≈ 21.8 µM)
MIC Escherichia coli (GC 4559) (Escherichia coli; strain GC 4559): 32 µg/mL (≈ 21.8 µM)
MIC Escherichi coli (GC 4560) (Escherichia coli; strain GC 4560): 8 µg/mL (≈ 5.46 µM)
MIC Coagulase Negative Staphylococcus (GC 4547) (Staphylococcus sp.; 5×10^5 CFU/mL): 8 µg/mL (≈ 5.46 µM)
MIC Coagulase Negative Staphylococcus (GC 4548) (Staphylococcus sp.; 5×10^5 CFU/mL): 4 µg/mL (≈ 2.73 µM)
MIC Coagulase Negative Staphylococcus (GC 4549) (Staphylococcus sp.; 5×10^5 CFU/mL): 4 µg/mL (≈ 2.73 µM)
MIC Coagulase Negative Staphylococcus (GC 4551) (Staphylococcus sp.; 5×10^5 CFU/mL): 8 µg/mL (≈ 5.46 µM)
MIC Coagulase Negative Staphylococcus (GC 6257) (Staphylococcus sp.; 5×10^5 CFU/mL): 4 µg/mL (≈ 2.73 µM)
MIC Staphylococcus aureus (ATCC 29213) (Staphylococcus sp.; 5×10^5 CFU/mL): 8 µg/mL (≈ 5.46 µM)
MIC Staphylococcus aureus (GC 1131) (Staphylococcus sp.; 5×10^5 CFU/mL): 8 µg/mL (≈ 5.46 µM)
MIC Staphylococcus aureus (GC 3051) (Staphylococcus sp.; 5×10^5 CFU/mL): 8 µg/mL (≈ 5.46 µM)
MIC Staphylococcus aureus (GC 3053) (Staphylococcus sp.; 5×10^5 CFU/mL): 8 µg/mL (≈ 5.46 µM)
MIC Staphylococcus aureus (GC 4541) (Staphylococcus sp.; 5×10^5 CFU/mL): 8 µg/mL (≈ 5.46 µM)
MIC Staphylococcus aureus (GC 4542) (Staphylococcus sp.; 5×10^5 CFU/mL): 16 µg/mL (≈ 10.9 µM)
MIC Staphylococcus aureus (GC 4544) (Staphylococcus sp.; 5×10^5 CFU/mL): 8 µg/mL (≈ 5.46 µM)
MIC Staphylococcus aureus (GC 4545) (Staphylococcus sp.; 5×10^5 CFU/mL): 8 µg/mL (≈ 5.46 µM)
MIC Staphylococcus aureus-SMITH (GC 4543) (Staphylococcus sp.; 5×10^5 CFU/mL): 8 µg/mL (≈ 5.46 µM)
MIC Staphylococcus aureus (ATCC 29213) (Staphylococcus sp.; strain ATCC 29213): 8 µg/mL (≈ 5.46 µM)
MIC Staphylococcus aureus (GC 1131) (Staphylococcus sp.; strain GC 1131): 8 µg/mL (≈ 5.46 µM)
MIC Staphylococcus aureus (GC 3051) (Staphylococcus sp.; strain GC 3051): 8 µg/mL (≈ 5.46 µM)
MIC Staphylococcus aureus (GC 3053) (Staphylococcus sp.; strain GC 3053): 8 µg/mL (≈ 5.46 µM)
MIC Staphylococcus aureus (GC 4541) (Staphylococcus sp.; strain GC 4541): 8 µg/mL (≈ 5.46 µM)
MIC Staphylococcus aureus (GC 4542) (Staphylococcus sp.; strain GC 4542): 16 µg/mL (≈ 10.9 µM)
MIC Staphylococcus aureus-SMITH (GC 4543) (Staphylococcus sp.; strain GC 4543): 8 µg/mL (≈ 5.46 µM)
MIC Staphylococcus aureus (GC 4544) (Staphylococcus sp.; strain GC 4544): 8 µg/mL (≈ 5.46 µM)
MIC Staphylococcus aureus (GC 4545) (Staphylococcus sp.; strain GC 4545): 8 µg/mL (≈ 5.46 µM)
MIC Coagulase Negative Staphylococcus (GC 4547) (Staphylococcus sp.; strain GC 4547): 8 µg/mL (≈ 5.46 µM)
MIC Coagulase Negative Staphylococcus (GC 4548) (Staphylococcus sp.; strain GC 4548): 4 µg/mL (≈ 2.73 µM)
MIC Coagulase Negative Staphylococcus (GC 4549) (Staphylococcus sp.; strain GC 4549): 4 µg/mL (≈ 2.73 µM)
MIC Coagulase Negative Staphylococcus (GC 4551) (Staphylococcus sp.; strain GC 4551): 8 µg/mL (≈ 5.46 µM)
MIC Coagulase Negative Staphylococcus (GC 6257) (Staphylococcus sp.; strain GC 6257): 4 µg/mL (≈ 2.73 µM)
MIC Streptococcus agalactiae (GC 4564) (Streptococcus sp.; [1]): 1 µg/mL (≈ 0.682 µM)
MIC Streptococcus pneumoniae (ATCC 6301) (Streptococcus sp.; [1]): 1 µg/mL (≈ 0.682 µM)
MIC Streptococcus pneumoniae (GC 1894) (Streptococcus sp.; [1]): 0.25 µg/mL (≈ 0.171 µM)
MIC Streptococcus pneumoniae (GC 4565) (Streptococcus sp.; [1]): 1 µg/mL (≈ 0.682 µM)
MIC Streptococcus pyogenes (GC 4563) (Streptococcus sp.; [1]): 0.5 µg/mL (≈ 0.341 µM)
MIC Streptococcus pneumoniae (ATCC 6301) (Streptococcus sp.; strain ATCC 6301): 1 µg/mL (≈ 0.682 µM)
MIC Streptococcus pneumoniae (GC 1894) (Streptococcus sp.; strain GC 1894): 0.25 µg/mL (≈ 0.171 µM)
MIC Streptococcus pyogenes (GC 4563) (Streptococcus sp.; strain GC 4563): 0.5 µg/mL (≈ 0.341 µM)
MIC Streptococcus agalactiae (GC 4564) (Streptococcus sp.; strain GC 4564): 1 µg/mL (≈ 0.682 µM)
MIC Streptococcus pneumoniae (GC 4565) (Streptococcus sp.; strain GC 4565): 1 µg/mL (≈ 0.682 µM)
Compound: CC(c1ccccc1)C1NC(=O)CNC(=O)C(CO)NC(=O)C(C(O)C2CNC(=N)N2C2OC(CO)C(O)C(O)C2O)NC(=O)C(C(O)C2CNC(=N)N2)NC(=O)C(Cc2ccc(OC3OC(CO)C(OC4OC(CO)C(O)C5OC(c6ccc(-c7ccsc7)cc6)OC45)C(O)C3O)cc2)NC1=O (stereo not drawn) [Example 164a, Cyclo[glycyl-β-methylphenylalanyl-O-[4-O-[2,3-O-[4-(3-thienyl)benzylidene]hexopyranosyl]-hexopyranosyl]tyrosyl-3-(2-iminoimidazolidin-4-yl)seryl-3-(3-hexopyranosyl-2-iminoimidazolidin-4-yl)serylseryl]]
MIC Staphylococcus haemolyticus (GC 4546) (Staphylococcus sp.; 5×10^5 CFU/mL): 4 µg/mL (≈ 2.73 µM)
MIC Staphylococcus haemolyticus (GC 4546) (Staphylococcus sp.; strain GC 4546): 4 µg/mL (≈ 2.73 µM)
